What was measured:
human on high-fat diet = assay: Oral chloroquine in a human on a high-fat diet (Working Example I); format: in vivo; conditions: person, 400 mg orally daily, 12 weeks
Experimental: A person with BMI of 20 eats a diet where 50% of calories come from fat, e.g. cheeseburgers or steak, onion rings or french fries, and ice cream or pecan pie for dessert at dinner, cold cut sandwich and fries or pizza for lunch, eggs, sausage, hash browns for breakfast. The subject also orally takes 400 mg chloroquine orally daily. The regimen is continued for 12 weeks.

[1] = test system: male C57BL/6 mice on a high-fat diet; assay: Chloroquine injection in mice on high-fat diet (obesity, insulin resistance, skeletal muscle lipid profiling); format: in vivo, mouse; conditions: high-fat diet (60% of calories from fat), 60 mg/kg intraperitoneal daily for 12 weeks
From the text: Five adult (12 week old) male C57BL/6 mice (The Jackson Laboratory, Bar Harbor, ME) were subjected to 12 weeks of high-fat diet (HF) (60% of calories from fat) with a separate group of five mice on normal chow (NC) for the same duration as control. A significant difference in body weight between NC and HF mice was detected 4 weeks after implementation of the high-fat diet, and the body weight of the HF group continued to increase to about 55.4% above the value in age matched NC mice after 12 weeks of the high-fat diet. […] NC mice. The development of severe obesity in HF mice was accompanied by 89.0% increase (P<0.001) in blood glucose area under curve (AUC) during a glucose tolerance test. These findings indicate that high-fat diet in adult mice induced severe obesity and insulin resistance.
Five of the same kind of non-obese mice as used in Background Example 1 on a high-fat diet (60% of calories from fat) were injected with chloroquine (60 mg/kg, intraperitoneal) daily for 12 weeks of high-fat diet feeding.

In the case of `CCN(CC)CCCC(C)Nc1ccnc2cc(Cl)ccc12` (centres unmarked) [chloroquine], the BMI (human on high-fat diet; baseline BMI 20, diet 50% of calories from fat) was 20, the “development of insulin resistance” value (human on high-fat diet; diet 50% of calories from fat) was “does not develop insulin resistance” and the “high-fat diet induced changes in skeletal muscle (mass spectrometry-based profiling of lipid species)” value [1] was “blocked high-fat diet induced changes in skeletal muscle”. The “occurrence of insulin resistance (glucose tolerance test)” value [1] was “blocked the occurrence of obesity and insulin resistance” and the occurrence of obesity [1] was “blocked the occurrence of obesity”.
